Test results as given in patent publication US12522596B2, “Compounds as GLP-1R agonists” (Terns Pharmaceuticals, Inc., priority 2021, dated 2026).
“Also recorded” adds a separate entry of the source.

What was measured:
[1] = Rat pharmacokinetics, oral dosing; assay type: in vivo, Sprague-Dawley rats; conditions: rat; for AUC(0-t) / Cmax / half-life: male, Sprague-Dawley, plasma, po, 3 mg/kg, rat plasma
Protocol: Oral dosing: Compounds were formulated at 0.3 mg/mL or 0.6 mg/mL in a solution comprising 5% polyethylene glycol 400 and 95% (12% (w/v) sulfobutyl-β-cyclodextrin in water) (v/v). Formulated compounds were administered to male, 7-11 week old Sprague-Dawley rats by oral gavage at a dose of 3 mg/kg.
Sample collection: Blood collections of about 0.2 mL per time point were performed from jugular vein or other suitable site of each animal, into pre-chilled commercial EDTA-K2 tubes and placed on wet ice until centrifugation. Blood samples were processed for plasma by centrifugation at approximately 4° C., 3,200 g for 10 min. Plasma was collected and transferred into pre-labeled 96 well plate or polypropylene tubes, quick frozen over dry ice and kept at −60° C. or lower until LC-MS/MS analysis.
Data analysis: Plasma concentration versus time data was plotted in graph and analyzed by non-compartmental approaches using the Phoenix WinNonlin 6.3 software program. Related PK parameters were calculated according to dosing route, e.g., CL, Vdss and C0 for intravenous administration, Cmax, Tmax or % F for extravascular administration, and T1/2, AUC(0-t), AUC(0-inf), MRT(0-t), MRT(0-inf) for all routes.

[2] = tested on: C57BL/6 mice expressing human GLP-1R (hGLP-1R); assay: Food intake in humanized mouse model; assay type: in vivo; conditions: hGLP-1R mice, relative to vehicle control; Compound 2 10, 30, 60 mg/kg PO
Protocol: The ability of compounds disclosed herein to modify the food intake of C57BL/6 mice expressing human GLP-1R (hGLP-1R) was evaluated.
The dose protocol used in this study is described in Table 6.
Acclimation and grouping: Mice were acclimated for QD PO dosing with vehicle for 4 days, baseline body weight and food intake were measured for 4 consecutive days. Animals were allocated into 8 groups based on body weight and 3rd day's food intake.
Dose body weight and food intake measurement: All animals were placed in clean cages with sawdust bedding and fasted overnight, mice were dosed with vehicle or test compound in the morning. All group's food was added 15 minutes post dosing, food remaining was recorded at 2-, 4-, 6-, 8-, 10- and 24-h post dosing. (FIG. 4) Body weight was determined on a daily basis during the study.
Data processing and analysis: Manual data were transferred into an excel spreadsheet. All values were expressed as mean±S.E.M. The significances of the differences among groups and within groups are evaluated by one-way or two-way ANOVA using Graph Pad statistic software. A p-value of less than 0.05 was considered statistically significant.

Structure (SMILES)	AUC(0-t) ([1]; 3 mg/kg PO (0.3 mg/mL)) [ng·h/mL]	Cmax ([1]; 3 mg/kg PO (0.3 mg/mL)) [ng/mL]	half-life ([1]; 3 mg/kg PO (0.3 mg/mL)) [h]	AUC(0-t) ([1]; 3 mg/kg PO (0.6 mg/mL)) [ng·h/mL]	Cmax ([1]; 3 mg/kg PO (0.6 mg/mL)) [ng/mL]	half-life ([1]; 3 mg/kg PO (0.6 mg/mL)) [h]	food intake [2]	PK properties relative to Reference Compound A ([1]; dosed orally)	higher AUC relative to Reference Compound A ([1]; oral administration)
N#Cc1ccc(COc2cccc(C3CCN(Cc4nc5ccc(C(=O)O)cc5n4C[C@@H]4CCO4)CC3)n2)c(F)c1 [Reference Compound A, reference compound]	60.6 ± 9.01	37.7 ± 8.09	2 ± 1.07	121 ± 36.9	102 ± 57	1.68 ± 0.44	reduction in food intake		
Cc1ncsc1Cn1c(CN2CCC(c3cccc(OCc4ccc(C#N)cc4F)n3)CC2)nc2ccc(C(=O)O)cc21 [Compound 4]	28.3 ± 21.7	21.6 ± 9.8	0.96 ± 0.33						
N#Cc1ccc(COc2cccc(C3CCN(Cc4nc5ccc(C(=O)O)cc5n4Cc4cncs4)CC3)n2)c(F)c1 [Compound 2]	384 ± 182	117 ± 61	3.3 ± 0.44	525 ± 138	491 ± 256	2.66 ± 1.74	reduction in food intake; also recorded: significantly suppressed food intake	significantly enhanced PK properties	4-6 fold
